The record followed here is PubChem BioAssay (NCI).

SMILES strings stand for the structures. “And” between values parts separate entries of the source, which are not always exact repeats. Equal entries are not always repeated.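 Interpolation was linear, between the two tested concentrations surrounding the appropriate level; five concentrations were tested over 48 hours in 96-well plates. GI50 is the concentration that inhibits growth by half. At the TGI there is no net growth.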

One experiment has as its system A498 renal. The experiment can be described thus: NCI anticancer screen, dose series, 48 h.
For `C[C@H]1Oc2cc(cnc2N)-c2c(nn(C)c2C#N)CN(C)C(=O)c2ccc(F)cc21`, the GI50 was 0.452 µM and the TGI was over 30.6 µM.
On to `N#Cc1c(-c2ccc(F)cc2)c(-c2ccc(F)cc2)nn(CCO)c1=O`, for which the TGI is over 54.2 µM.
With `CC(=O)c1cc2c(o1)C(=O)c1ccccc1C2=O`, the GI50 is 0.682 µM and 1.37 µM; the TGI is 1.48 µM and 2.69 µM.
On to `CCN(CC)c1nc(-c2ccc(Cl)cc2Cl)nc2ccccc12`, for which the GI50 was 0.702 µM and the TGI was 7.63 µM.
`Cc1nc2ccccc2nc1-c1ccc(N=[N+]([O-])c2ccc(-c3nc4ccccc4nc3C)cc2)cc1`: the TGI was over 89 µM.

The test system of another experiment is A549 NSCLC. The experiment is described as follows: NCI anticancer screen, dose series, 48 h.
Consider `C[C@H]1Oc2cc(cnc2N)-c2c(nn(C)c2C#N)CN(C)C(=O)c2ccc(F)cc21`, for which the GI50 was 25.4 µM and the TGI was over 100 µM.
Take `N#Cc1c(-c2ccc(F)cc2)c(-c2ccc(F)cc2)nn(CCO)c1=O`: the TGI was over 100 µM.
For the molecule `CC(=O)c1cc2c(o1)C(=O)c1ccccc1C2=O`, the GI50 is 0.217 µM and 0.208 µM; the TGI was 0.453 µM and 0.434 µM.
For the molecule `CCN(CC)c1nc(-c2ccc(Cl)cc2Cl)nc2ccccc12`, the GI50 is 17.1 µM and the TGI is 57.2 µM.
Molecule `Cc1nc2ccccc2nc1-c1ccc(N=[N+]([O-])c2ccc(-c3nc4ccccc4nc3C)cc2)cc1` yielded a TGI of over 100 µM.

Another experiment concerns ACHN renal. The experiment is described as follows: NCI anticancer screen, dose series, 48 h.
With `C[C@H]1Oc2cc(cnc2N)-c2c(nn(C)c2C#N)CN(C)C(=O)c2ccc(F)cc21`, the GI50 is 22.8 µM and the TGI is over 100 µM.
With `N#Cc1c(-c2ccc(F)cc2)c(-c2ccc(F)cc2)nn(CCO)c1=O`, the TGI was over 81.1 µM.
Regarding `CC(=O)c1cc2c(o1)C(=O)c1ccccc1C2=O`, the GI50 is 0.467 µM and 0.415 µM; the TGI is 1.6 µM and 1.31 µM.
In the case of `CCN(CC)c1nc(-c2ccc(Cl)cc2Cl)nc2ccccc12`, the GI50 was 15.8 µM and the TGI turned out to be 50.4 µM.
`Cc1nc2ccccc2nc1-c1ccc(N=[N+]([O-])c2ccc(-c3nc4ccccc4nc3C)cc2)cc1` had a TGI of over 100 µM.

The test system of the next experiment is COLO 205 colon. The experiment can be described thus: NCI anticancer screen, dose series, 48 h.
`C[C@H]1Oc2cc(cnc2N)-c2c(nn(C)c2C#N)CN(C)C(=O)c2ccc(F)cc21`: the GI50 is 5.24 µM and the TGI is 51.4 µM.
In the case of `N#Cc1c(-c2ccc(F)cc2)c(-c2ccc(F)cc2)nn(CCO)c1=O`, the TGI was 2.44 µM.
With `CC(=O)c1cc2c(o1)C(=O)c1ccccc1C2=O`, the GI50 was 0.192 µM and 1.72 µM; the TGI was 0.374 µM and 3.44 µM.
As to `CCN(CC)c1nc(-c2ccc(Cl)cc2Cl)nc2ccccc12`, the GI50 was 19.5 µM and the TGI is 48.8 µM.
Molecule `Cc1nc2ccccc2nc1-c1ccc(N=[N+]([O-])c2ccc(-c3nc4ccccc4nc3C)cc2)cc1` gave a TGI of over 100 µM.

In a further experiment the test system is HCT-116 colon. The experiment is described as follows: NCI anticancer screen, dose series, 48 h.
Turning to `C[C@H]1Oc2cc(cnc2N)-c2c(nn(C)c2C#N)CN(C)C(=O)c2ccc(F)cc21`, the GI50 is 22.9 µM and the TGI is over 100 µM.
The molecule `N#Cc1c(-c2ccc(F)cc2)c(-c2ccc(F)cc2)nn(CCO)c1=O` displayed a TGI of 7.04 µM.
Turning to `CC(=O)c1cc2c(o1)C(=O)c1ccccc1C2=O`, the GI50 was 0.226 µM and 0.267 µM; the TGI is 0.544 µM and 0.805 µM.
With `CCN(CC)c1nc(-c2ccc(Cl)cc2Cl)nc2ccccc12`, the GI50 is 14.8 µM and the TGI was 29 µM.
In the case of `Cc1nc2ccccc2nc1-c1ccc(N=[N+]([O-])c2ccc(-c3nc4ccccc4nc3C)cc2)cc1`, the TGI was over 100 µM.

In the next experiment the test system is HCT-15 colon. The experiment is described as follows: NCI anticancer screen, dose series, 48 h.
`C[C@H]1Oc2cc(cnc2N)-c2c(nn(C)c2C#N)CN(C)C(=O)c2ccc(F)cc21`: the GI50 is 47 µM and the TGI was over 100 µM.
As for `N#Cc1c(-c2ccc(F)cc2)c(-c2ccc(F)cc2)nn(CCO)c1=O`, the TGI turned out to be 8.6 µM.
Consider `CC(=O)c1cc2c(o1)C(=O)c1ccccc1C2=O`, for which the GI50 is 0.166 µM and 0.179 µM; the TGI is 0.365 µM and 0.398 µM.
For the molecule `CCN(CC)c1nc(-c2ccc(Cl)cc2Cl)nc2ccccc12`, the GI50 was 19.3 µM and the TGI stood at 48.9 µM.
In turn, `Cc1nc2ccccc2nc1-c1ccc(N=[N+]([O-])c2ccc(-c3nc4ccccc4nc3C)cc2)cc1` had a TGI of over 100 µM.

Another experiment concerns HL-60(TB) leukemia. The experiment can be described thus: NCI anticancer screen, dose series, 48 h.
For the molecule `C[C@H]1Oc2cc(cnc2N)-c2c(nn(C)c2C#N)CN(C)C(=O)c2ccc(F)cc21`, the GI50 was over 100 µM and the TGI was over 100 µM.
Regarding `N#Cc1c(-c2ccc(F)cc2)c(-c2ccc(F)cc2)nn(CCO)c1=O`, the TGI was determined as 0.292 µM.
On to `CC(=O)c1cc2c(o1)C(=O)c1ccccc1C2=O`, for which the GI50 is 0.241 µM and 0.271 µM; the TGI is 0.641 µM and 0.773 µM.
In the case of `CCN(CC)c1nc(-c2ccc(Cl)cc2Cl)nc2ccccc12`, the GI50 is 26.2 µM and the TGI was over 100 µM.
In turn, `Cc1nc2ccccc2nc1-c1ccc(N=[N+]([O-])c2ccc(-c3nc4ccccc4nc3C)cc2)cc1` registered a TGI of over 100 µM.

A further experiment has as its system OVCAR-4 ovarian. The experiment can be described thus: NCI anticancer screen, dose series, 48 h.
With `C[C@H]1Oc2cc(cnc2N)-c2c(nn(C)c2C#N)CN(C)C(=O)c2ccc(F)cc21`, the GI50 was over 100 µM and the TGI is over 100 µM.
With `N#Cc1c(-c2ccc(F)cc2)c(-c2ccc(F)cc2)nn(CCO)c1=O`, the TGI was over 100 µM.
On to `CC(=O)c1cc2c(o1)C(=O)c1ccccc1C2=O`, for which the GI50 is 0.255 µM and 0.377 µM; the TGI was 0.767 µM and 1.48 µM.
As for `CCN(CC)c1nc(-c2ccc(Cl)cc2Cl)nc2ccccc12`, the GI50 is 51.6 µM and the TGI is over 100 µM.
In turn, `Cc1nc2ccccc2nc1-c1ccc(N=[N+]([O-])c2ccc(-c3nc4ccccc4nc3C)cc2)cc1` yielded a TGI of over 100 µM.

In a further experiment the test system is RXF 393 renal. The experiment can be described thus: NCI anticancer screen, dose series, 48 h.
Take `C[C@H]1Oc2cc(cnc2N)-c2c(nn(C)c2C#N)CN(C)C(=O)c2ccc(F)cc21`: the GI50 was 16.7 µM and the TGI was over 90.9 µM.
In turn, `N#Cc1c(-c2ccc(F)cc2)c(-c2ccc(F)cc2)nn(CCO)c1=O` had a TGI of 11.2 µM.
As for `CC(=O)c1cc2c(o1)C(=O)c1ccccc1C2=O`, the GI50 is 0.239 µM and 0.249 µM; the TGI was 0.563 µM and 0.634 µM.
Take `CCN(CC)c1nc(-c2ccc(Cl)cc2Cl)nc2ccccc12`: the GI50 was 17.2 µM and the TGI is 42.5 µM.
In the case of `Cc1nc2ccccc2nc1-c1ccc(N=[N+]([O-])c2ccc(-c3nc4ccccc4nc3C)cc2)cc1`, the TGI is over 95.1 µM.

In another experiment the test system is SNB-75 CNS. The experiment can be described thus: NCI anticancer screen, dose series, 48 h.
`C[C@H]1Oc2cc(cnc2N)-c2c(nn(C)c2C#N)CN(C)C(=O)c2ccc(F)cc21`: the GI50 is 21.7 µM and the TGI was over 100 µM.
As to `N#Cc1c(-c2ccc(F)cc2)c(-c2ccc(F)cc2)nn(CCO)c1=O`, the TGI is 16.9 µM.
`CC(=O)c1cc2c(o1)C(=O)c1ccccc1C2=O`: the GI50 is 0.181 µM and 0.195 µM; the TGI was 0.328 µM and 0.376 µM.
For `CCN(CC)c1nc(-c2ccc(Cl)cc2Cl)nc2ccccc12`, the GI50 is 43.9 µM and the TGI was over 100 µM.
Take `Cc1nc2ccccc2nc1-c1ccc(N=[N+]([O-])c2ccc(-c3nc4ccccc4nc3C)cc2)cc1`: the TGI was determined as 46 µM.
